# According to patent US20100240683A1, “COMBINATION THERAPY, COMPOSITION AND METHODS FOR THE TREATMENT OF CARDIOVASCULAR DISORDERS” (Syndromex Ltd., priority 2007, published 2010):
# Experiments:
# [1] = molecular target: T1, CYP1A2 (Homo sapiens, UniProt P05177); test: in vitro
# T1 sequence (P05177 1-516): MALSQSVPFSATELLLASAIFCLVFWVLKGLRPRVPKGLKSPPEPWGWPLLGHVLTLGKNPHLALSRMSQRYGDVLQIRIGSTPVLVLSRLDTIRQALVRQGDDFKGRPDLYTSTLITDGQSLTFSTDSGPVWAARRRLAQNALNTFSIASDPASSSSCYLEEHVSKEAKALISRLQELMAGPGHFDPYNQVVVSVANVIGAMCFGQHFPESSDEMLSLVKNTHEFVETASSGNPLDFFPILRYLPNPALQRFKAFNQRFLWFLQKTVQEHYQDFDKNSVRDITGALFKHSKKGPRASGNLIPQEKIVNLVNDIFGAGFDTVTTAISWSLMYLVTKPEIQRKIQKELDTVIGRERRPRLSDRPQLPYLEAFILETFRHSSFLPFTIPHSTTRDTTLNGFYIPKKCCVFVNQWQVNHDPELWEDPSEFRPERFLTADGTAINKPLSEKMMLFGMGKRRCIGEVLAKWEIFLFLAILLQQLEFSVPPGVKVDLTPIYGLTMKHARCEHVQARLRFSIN
# [2] = molecular target: CYP2C19 (Homo sapiens, UniProt P33261); test: in vitro
# Chain of CYP2C19 (P33261 whole entry): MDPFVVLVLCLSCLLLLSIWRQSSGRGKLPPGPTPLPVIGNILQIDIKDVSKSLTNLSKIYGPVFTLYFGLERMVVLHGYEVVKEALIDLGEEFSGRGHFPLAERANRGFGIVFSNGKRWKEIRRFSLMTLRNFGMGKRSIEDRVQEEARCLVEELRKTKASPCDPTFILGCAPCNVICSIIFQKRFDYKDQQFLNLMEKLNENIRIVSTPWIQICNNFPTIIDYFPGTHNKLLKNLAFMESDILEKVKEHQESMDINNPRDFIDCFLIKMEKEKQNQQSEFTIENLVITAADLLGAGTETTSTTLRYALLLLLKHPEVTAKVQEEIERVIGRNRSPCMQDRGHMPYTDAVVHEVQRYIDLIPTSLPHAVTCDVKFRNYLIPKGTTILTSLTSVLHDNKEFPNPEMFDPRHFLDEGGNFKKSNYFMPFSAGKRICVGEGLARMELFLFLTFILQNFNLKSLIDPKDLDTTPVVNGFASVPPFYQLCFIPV
# [3] = molecular target: CYP2D6 (Homo sapiens, UniProt P10635); test: in vitro
# Chain of CYP2D6 (P10635 whole entry): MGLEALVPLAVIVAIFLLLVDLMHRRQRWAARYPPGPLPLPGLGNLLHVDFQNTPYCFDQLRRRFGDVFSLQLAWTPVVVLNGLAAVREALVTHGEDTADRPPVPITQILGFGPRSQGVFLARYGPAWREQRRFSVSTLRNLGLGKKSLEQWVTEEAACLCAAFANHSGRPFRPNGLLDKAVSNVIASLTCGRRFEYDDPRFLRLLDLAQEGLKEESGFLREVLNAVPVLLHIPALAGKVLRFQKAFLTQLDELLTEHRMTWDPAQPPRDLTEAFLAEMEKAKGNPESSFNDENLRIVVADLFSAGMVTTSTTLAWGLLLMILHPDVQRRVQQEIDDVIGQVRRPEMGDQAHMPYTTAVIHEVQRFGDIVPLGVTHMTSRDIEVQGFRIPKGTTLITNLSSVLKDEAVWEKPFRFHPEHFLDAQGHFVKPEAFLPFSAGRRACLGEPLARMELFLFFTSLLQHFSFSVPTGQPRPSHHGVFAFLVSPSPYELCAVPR
# [4] = molecular target: T1, CYP1A2; test: Fluorimetric CYP inhibition assay, CYP1A2-CEC
# [5] = molecular target: CYP2C9 (Homo sapiens, UniProt P11712); test: Fluorimetric CYP inhibition assay, CYP2C9-MFC
# Chain of CYP2C9 (P11712 whole entry): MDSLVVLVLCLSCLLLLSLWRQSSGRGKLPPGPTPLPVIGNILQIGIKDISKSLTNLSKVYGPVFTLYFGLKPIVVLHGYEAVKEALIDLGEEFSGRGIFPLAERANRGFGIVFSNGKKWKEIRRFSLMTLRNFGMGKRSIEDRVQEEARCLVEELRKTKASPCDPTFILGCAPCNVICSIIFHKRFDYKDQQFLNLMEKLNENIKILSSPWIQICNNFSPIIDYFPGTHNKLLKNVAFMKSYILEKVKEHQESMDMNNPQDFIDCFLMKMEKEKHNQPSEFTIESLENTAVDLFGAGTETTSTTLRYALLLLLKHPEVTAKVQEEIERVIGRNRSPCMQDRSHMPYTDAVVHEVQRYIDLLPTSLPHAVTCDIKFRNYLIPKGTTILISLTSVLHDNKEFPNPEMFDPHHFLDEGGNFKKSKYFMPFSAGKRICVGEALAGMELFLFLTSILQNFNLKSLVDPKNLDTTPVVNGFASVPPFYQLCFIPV
# [6] = molecular target: CYP3A4 (Homo sapiens, UniProt P08684); test: Fluorimetric CYP inhibition assay, CYP3A4 (substrates BFC, BQ, DBF)
# Chain of CYP3A4 (P08684 whole entry): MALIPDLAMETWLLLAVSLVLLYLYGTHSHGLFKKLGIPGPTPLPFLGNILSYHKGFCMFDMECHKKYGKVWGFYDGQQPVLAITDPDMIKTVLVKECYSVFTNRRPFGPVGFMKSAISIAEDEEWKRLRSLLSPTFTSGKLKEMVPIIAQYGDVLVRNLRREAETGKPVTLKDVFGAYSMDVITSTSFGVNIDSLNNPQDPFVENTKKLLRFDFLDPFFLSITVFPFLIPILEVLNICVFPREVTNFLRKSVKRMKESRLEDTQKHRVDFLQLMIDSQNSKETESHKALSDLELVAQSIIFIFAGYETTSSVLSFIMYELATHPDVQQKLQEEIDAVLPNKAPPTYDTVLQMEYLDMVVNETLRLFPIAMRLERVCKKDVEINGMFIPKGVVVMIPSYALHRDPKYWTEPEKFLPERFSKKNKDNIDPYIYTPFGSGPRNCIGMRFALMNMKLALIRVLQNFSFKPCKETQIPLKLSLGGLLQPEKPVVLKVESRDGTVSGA
# [7] = system: healthy male volunteers; test: Evaluation of safety clinical and laboratory parameters in healthy male volunteers; assay type: in vivo, human; conditions: 1 to 4 weeks, varying doses, during treatment and one month after
# Description: Fifteen healthy male volunteers aged 25-52 were treated for periods ranging from 1 to 4 weeks with varying doses of M16ββ.
# [8] = system: dyslipidemic non-diabetic patients; test: Hypolipidemic effect of M16ββ in dyslipidemic non-diabetic patients; assay type: in vivo, human; conditions: p.o. 200 mg/day to 800 mg/day
# Description: Eight dyslipidemic non-diabetic patients were subjected to 4-5 weeks maintenance period on placebo followed by a period of 3-5 months of treatment p.o. with increasing M16ββ doses ranging from 200 mg/day to 800 mg/day.
# [9] = system: obese dyslipidemic, insulin resistant non-diabetic patients; test: Sensitization to insulin in obese dyslipidemic, insulin resistant non-diabetic patients; assay type: in vivo, human
# Description: Five obese dyslipidemic, insulin resistant non-diabetic patients were subjected to 4 weeks maintenance period on placebo followed by treatment p.o. with increasing daily doses ranging from 30-600 mg M16ββ per dose for a period of 4 weeks.
# [10] = p.o. 30-600 mg per dose daily, 4 weeks
smiles,measurement,setting,value
"CC(C)(CCCCCCCCCCCCC(C)(C)C(=O)O)C(=O)O [M16αα, 2,2,15,15-tetramethylhexadecane-1,16-dioic acid]",inhibition at 0.05 μM,[1]; % Inhibition (set 1),0%
same,inhibition at 0.41 μM,[1]; % Inhibition (set 1),6%
same,inhibition at 1.23 μM,[1]; % Inhibition (set 1),0%
same,inhibition at 3.7 μM,[1]; % Inhibition (set 1),9%
same,inhibition at 11.11 μM,[1]; % Inhibition (set 1),5%
same,inhibition at 33.33 μM,[1]; % Inhibition (set 1),7%
same,inhibition at 100 μM,[1]; % Inhibition (set 1),8%
same,inhibition at 0.05 μM,[1]; % Inhibition (set 2),0%
same,inhibition at 0.41 μM,[1]; % Inhibition (set 2),3%
same,inhibition at 1.23 μM,[1]; % Inhibition (set 2),1%
same,inhibition at 3.7 μM,[1]; % Inhibition (set 2),5%
same,inhibition at 11.11 μM,[1]; % Inhibition (set 2),6%
same,inhibition at 33.33 μM,[1]; % Inhibition (set 2),4%
same,inhibition at 100 μM,[1]; % Inhibition (set 2),9%
same,inhibition at 0.05 μM,[2]; % Inhibition (set 1),0%
same,inhibition at 0.41 μM,[2]; % Inhibition (set 1),0%
same,inhibition at 1.23 μM,[2]; % Inhibition (set 1),0%
same,inhibition at 3.7 μM,[2]; % Inhibition (set 1),0%
same,inhibition at 11.11 μM,[2]; % Inhibition (set 1),3%
same,inhibition at 33.33 μM,[2]; % Inhibition (set 1),57%
same,inhibition at 100 μM,[2]; % Inhibition (set 1),63%
same,inhibition at 0.05 μM,[2]; % Inhibition (set 2),1%
same,inhibition at 0.41 μM,[2]; % Inhibition (set 2),2%
same,inhibition at 1.23 μM,[2]; % Inhibition (set 2),4%
same,inhibition at 3.7 μM,[2]; % Inhibition (set 2),4%
same,inhibition at 11.11 μM,[2]; % Inhibition (set 2),12%
same,inhibition at 33.33 μM,[2]; % Inhibition (set 2),43%
same,inhibition at 100 μM,[2]; % Inhibition (set 2),70%
same,inhibition at 0.05 μM,[3]; % Inhibition (set 1),0%
same,inhibition at 0.41 μM,[3]; % Inhibition (set 1),0%
same,inhibition at 1.23 μM,[3]; % Inhibition (set 1),0%
same,inhibition at 3.7 μM,[3]; % Inhibition (set 1),0%
same,inhibition at 11.11 μM,[3]; % Inhibition (set 1),3%
same,inhibition at 33.33 μM,[3]; % Inhibition (set 1),11%
same,inhibition at 100 μM,[3]; % Inhibition (set 1),7%
same,inhibition at 0.05 μM,[3]; % Inhibition (set 2),0%
same,inhibition at 0.41 μM,[3]; % Inhibition (set 2),0%
same,inhibition at 1.23 μM,[3]; % Inhibition (set 2),0%
same,inhibition at 3.7 μM,[3]; % Inhibition (set 2),0%
same,inhibition at 11.11 μM,[3]; % Inhibition (set 2),2%
same,inhibition at 33.33 μM,[3]; % Inhibition (set 2),15%
same,inhibition at 100 μM,[3]; % Inhibition (set 2),0%
same,IC50,[4],> 100 µM
same,IC50,[5],> 100 µM
same,IC50,[6],> 100 µM
"CC(C)(CCCCCCCCCCC(C)(C)CC(=O)O)CC(=O)O [M16ββ, 3,3,14,14-tetramethylhexadecane-1,16-dioic acid]","drug-related changes in safety clinical (body weight, blood pressure, pulse, ECG) and laboratory (hematology, blood chemistry, urinary analysis) parameters",[7],no drug-related changes were detected
same,time into treatment at which hypolipidemic effect was observed,[8],less than 1 month
same,Plasma LDL-C,[8]; 3-5 months,remained unaffected
same,decrease in plasma triglycerides (mean),[8]; 3-5 months,55%
same,increase in HDL-C,[8]; 3-5 months,13%
same,plasma fibrinogen,[8]; 3-5 months,decrease
same,tolerability,[8]; 3-5 months,well tolerated in all dosages
same,hypolipidemic efficacy,[9]; at daily doses below 200 mg,substantial hypolipidemic efficacy
same,HOMA (homeostatic model assessment),[9]; [10],decrease
same,LDL-C,[9]; [10],no change
same,VLDL-C,[9]; [10],robust decrease
same,glucose uptake,[9]; [10],increased
same,plasma insulin clearance,[9]; [10],increase
same,plasma insulin levels,[9]; [10],decrease
same,sensitization to insulin,[9]; [10],increased sensitization to insulin
same,tolerability,[9]; [10],well tolerated in all dosages
same,inhibition at 0.05 μM,[1]; % Inhibition (set 1),0%
same,inhibition at 0.41 μM,[1]; % Inhibition (set 1),0%
same,inhibition at 1.23 μM,[1]; % Inhibition (set 1),0%
same,inhibition at 3.7 μM,[1]; % Inhibition (set 1),0%
same,inhibition at 11.11 μM,[1]; % Inhibition (set 1),4%
same,inhibition at 33.33 μM,[1]; % Inhibition (set 1),3%
same,inhibition at 100 μM,[1]; % Inhibition (set 1),1%
same,inhibition at 0.05 μM,[1]; % Inhibition (set 2),0%
same,inhibition at 0.41 μM,[1]; % Inhibition (set 2),0%
same,inhibition at 1.23 μM,[1]; % Inhibition (set 2),0%
same,inhibition at 3.7 μM,[1]; % Inhibition (set 2),0%
same,inhibition at 11.11 μM,[1]; % Inhibition (set 2),0%
same,inhibition at 33.33 μM,[1]; % Inhibition (set 2),1%
same,inhibition at 100 μM,[1]; % Inhibition (set 2),4%
same,inhibition at 0.05 μM,[2]; % Inhibition (set 1),0%
same,inhibition at 0.41 μM,[2]; % Inhibition (set 1),5%
same,inhibition at 1.23 μM,[2]; % Inhibition (set 1),4%
same,inhibition at 3.7 μM,[2]; % Inhibition (set 1),0%
same,inhibition at 11.11 μM,[2]; % Inhibition (set 1),0%
same,inhibition at 33.33 μM,[2]; % Inhibition (set 1),1%
same,inhibition at 100 μM,[2]; % Inhibition (set 1),21%
same,inhibition at 0.05 μM,[2]; % Inhibition (set 2),0%
same,inhibition at 0.41 μM,[2]; % Inhibition (set 2),1%
same,inhibition at 1.23 μM,[2]; % Inhibition (set 2),0%
same,inhibition at 3.7 μM,[2]; % Inhibition (set 2),0%
same,inhibition at 11.11 μM,[2]; % Inhibition (set 2),0%
same,inhibition at 33.33 μM,[2]; % Inhibition (set 2),1%
same,inhibition at 100 μM,[2]; % Inhibition (set 2),7%
same,inhibition at 0.05 μM,[3]; % Inhibition (set 1),0%
same,inhibition at 0.41 μM,[3]; % Inhibition (set 1),0%
same,inhibition at 1.23 μM,[3]; % Inhibition (set 1),0%
same,inhibition at 3.7 μM,[3]; % Inhibition (set 1),0%
same,inhibition at 11.11 μM,[3]; % Inhibition (set 1),10%
same,inhibition at 33.33 μM,[3]; % Inhibition (set 1),17%
same,inhibition at 100 μM,[3]; % Inhibition (set 1),10%
same,inhibition at 0.05 μM,[3]; % Inhibition (set 2),0%
same,inhibition at 0.41 μM,[3]; % Inhibition (set 2),0%
same,inhibition at 1.23 μM,[3]; % Inhibition (set 2),0%
same,inhibition at 3.7 μM,[3]; % Inhibition (set 2),1%
same,inhibition at 11.11 μM,[3]; % Inhibition (set 2),6%
same,inhibition at 33.33 μM,[3]; % Inhibition (set 2),14%
same,inhibition at 100 μM,[3]; % Inhibition (set 2),19%
same,IC50,[4],> 100 µM
same,IC50,[5],> 100 µM
same,IC50,[6],> 100 µM
